Measurements taken from patent publication US20100298141A1, “SUBSTITUTED PYRIDINE N-OXIDE HERBICIDES” (E. I. DU PONT DE NEMOURS AND COMPANY, priority 2007, published 2010).

Legend:
Assay in all cases: Test F preemergence test
Settings in all cases: scale 0 to 100
naked crabgrass = type: in vivo, Digitaria nuda
Summary of the method: (§1)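 Compound in a non-phytotoxic solvent blend with surfactant is applied preemergence to planted seeds or postemergence to sugarcane plants. Plants and controls stay in the greenhouse 14 to 21 days before visual comparison.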

bermudagrass = type: in vivo, Cynodon dactylon
Summary of the method: as §1

common chickweed = type: in vivo, Stellaria media
Summary of the method: as §1

common purslane = type: in vivo, Portulaca oleracea
Summary of the method: as §1

Virginia dayflower = type: in vivo, Commelina virginica
Summary of the method: as §1

annual bluegrass = type: in vivo, Poa annua
Summary of the method: as §1

dallisgrass = type: in vivo, Paspalum dilatatum
Summary of the method: as §1

purple nutsedge = type: in vivo, Cyperus rotundus
Summary of the method: as §1

common mallow = type: in vivo, Malva sylvestris
Summary of the method: as §1

pitted morningglory = type: in vivo, Ipomoea lacunosa
Summary of the method: as §1

common groundsel = type: in vivo, Senecio vulgaris
Summary of the method: as §1

mustard = type: in vivo, Brassica nigra
Summary of the method: as §1

kochia = type: in vivo, Kochia scoparia
Summary of the method: as §1

prickly sida = type: in vivo, Sida spinosa
Summary of the method: as §1

broadleaf signalgrass = type: in vivo, Brachiaria platyphylla
Summary of the method: as §1

quackgrass = type: in vivo, Elytrigia repens
Summary of the method: as §1

guineagrass = type: in vivo, Panicum maximum
Summary of the method: as §1

Canada horseweed = type: in vivo, Conyza canadensis
Summary of the method: as §1

barnyardgrass = type: in vivo, Echinochloa crus-galli
Summary of the method: as §1

Cc1cc[n+]([O-])c([S+]([O-])Cc2c(C(F)(F)F)nn(C)c2OCC(F)(F)F)c1 (racemic) [Compound 30]
Crabgrass, Naked plant response rating (naked crabgrass; 62 g ai/ha, Preemergence): 100 | Crabgrass, Naked plant response rating (naked crabgrass; 125 g ai/ha, preemergence): 100 | Plant response rating, Crabgrass, Naked (naked crabgrass; Preemergence, 16 g ai/ha): 80 | Plant response rating, Crabgrass, Naked (naked crabgrass; Preemergence, 31 g ai/ha): 98 | Bermudagrass plant response rating (bermudagrass; 62 g ai/ha, Preemergence): 98 | Bermudagrass plant response rating (bermudagrass; 125 g ai/ha, preemergence): 100 | Plant response rating, Bermudagrass (bermudagrass; Preemergence, 16 g ai/ha): 40 | Plant response rating, Bermudagrass (bermudagrass; Preemergence, 31 g ai/ha): 80 | Chickweed plant response rating (common chickweed; 62 g ai/ha, Preemergence): 100 | Chickweed plant response rating (common chickweed; 125 g ai/ha, preemergence): 100 | Plant response rating, Chickweed (common chickweed; Preemergence, 16 g ai/ha): 75 | Plant response rating, Chickweed (common chickweed; Preemergence, 31 g ai/ha): 100 | Purslane plant response rating (common purslane; 62 g ai/ha, Preemergence): 75 | Purslane plant response rating (common purslane; 125 g ai/ha, preemergence): 100 | Plant response rating, Purslane (common purslane; Preemergence, 16 g ai/ha): 35 | Plant response rating, Purslane (common purslane; Preemergence, 31 g ai/ha): 50 | Dayflower plant response rating (Virginia dayflower; 62 g ai/ha, Preemergence): 90 | Dayflower plant response rating (Virginia dayflower; 125 g ai/ha, preemergence): 100 | Plant response rating, Dayflower (Virginia dayflower; Preemergence, 16 g ai/ha): 50 | Plant response rating, Dayflower (Virginia dayflower; Preemergence, 31 g ai/ha): 70 | Bluegrass plant response rating (annual bluegrass; 62 g ai/ha, Preemergence): 65 | Bluegrass plant response rating (annual bluegrass; 125 g ai/ha, preemergence): 80 | Plant response rating, Bluegrass (annual bluegrass; Preemergence, 16 g ai/ha): 35 | Plant response rating, Bluegrass (annual bluegrass; Preemergence, 31 g ai/ha): 50 | Dallisgrass plant response rating (dallisgrass; 62 g ai/ha, Preemergence): 85 | Dallisgrass plant response rating (dallisgrass; 125 g ai/ha, preemergence): 98 | Plant response rating, Dallisgrass (dallisgrass; Preemergence, 16 g ai/ha): 50 | Plant response rating, Dallisgrass (dallisgrass; Preemergence, 31 g ai/ha): 50 | Purple Nutsedge plant response rating (purple nutsedge; 62 g ai/ha, Preemergence): 70 | Purple Nutsedge plant response rating (purple nutsedge; 125 g ai/ha, preemergence): 90 | Plant response rating, Purple Nutsedge (purple nutsedge; Preemergence, 16 g ai/ha): 0 | Plant response rating, Purple Nutsedge (purple nutsedge; Preemergence, 31 g ai/ha): 40 | Mallow plant response rating (common mallow; 62 g ai/ha, Preemergence): 100 | Mallow plant response rating (common mallow; 125 g ai/ha, preemergence): 100 | Plant response rating, Mallow (common mallow; Preemergence, 16 g ai/ha): 90 | Plant response rating, Mallow (common mallow; Preemergence, 31 g ai/ha): 95 | Morningglory plant response rating (pitted morningglory; 62 g ai/ha, Preemergence): 90 | Morningglory plant response rating (pitted morningglory; 125 g ai/ha, preemergence): 100 | Plant response rating, Morningglory (pitted morningglory; Preemergence, 16 g ai/ha): 20 | Plant response rating, Morningglory (pitted morningglory; Preemergence, 31 g ai/ha): 60 | Groundsel plant response rating (common groundsel; 62 g ai/ha, Preemergence): 90 | Groundsel plant response rating (common groundsel; 125 g ai/ha, preemergence): 100 | Plant response rating, Groundsel (common groundsel; Preemergence, 16 g ai/ha): 50 | Plant response rating, Groundsel (common groundsel; Preemergence, 31 g ai/ha): 90 | Black Mustard plant response rating (mustard; 62 g ai/ha, Preemergence): 100 | Black Mustard plant response rating (mustard; 125 g ai/ha, preemergence): 100 | Plant response rating, Black Mustard (mustard; Preemergence, 16 g ai/ha): 70 | Plant response rating, Black Mustard (mustard; Preemergence, 31 g ai/ha): 90 | Kochia plant response rating (kochia; 62 g ai/ha, Preemergence): 95 | Kochia plant response rating (kochia; 125 g ai/ha, preemergence): 95 | Plant response rating, Kochia (kochia; Preemergence, 16 g ai/ha): 90 | Plant response rating, Kochia (kochia; Preemergence, 31 g ai/ha): 90 | Prickly Sida plant response rating (prickly sida; 62 g ai/ha, Preemergence): 95 | Prickly Sida plant response rating (prickly sida; 125 g ai/ha, preemergence): 100 | Plant response rating, Prickly Sida (prickly sida; Preemergence, 16 g ai/ha): 60 | Plant response rating, Prickly Sida (prickly sida; Preemergence, 31 g ai/ha): 80 | Signalgrass plant response rating (broadleaf signalgrass; 62 g ai/ha, Preemergence): 70 | Signalgrass plant response rating (broadleaf signalgrass; 125 g ai/ha, preemergence): 90 | Plant response rating, Signalgrass (broadleaf signalgrass; Preemergence, 31 g ai/ha): 65 | Quackgrass plant response rating (quackgrass; 62 g ai/ha, Preemergence): 70 | Quackgrass plant response rating (quackgrass; 125 g ai/ha, preemergence): 75 | Plant response rating, Quackgrass (quackgrass; Preemergence, 16 g ai/ha): 15 | Plant response rating, Quackgrass (quackgrass; Preemergence, 31 g ai/ha): 40 | Guineagrass plant response rating (guineagrass; 62 g ai/ha, Preemergence): 100 | Guineagrass plant response rating (guineagrass; 125 g ai/ha, preemergence): 100 | Plant response rating, Guineagrass (guineagrass; Preemergence, 16 g ai/ha): 35 | Plant response rating, Guineagrass (guineagrass; Preemergence, 31 g ai/ha): 100 | Horseweed plant response rating (Canada horseweed; 62 g ai/ha, Preemergence): 100 | Horseweed plant response rating (Canada horseweed; 125 g ai/ha, preemergence): 100 | Plant response rating, Horseweed (Canada horseweed; Preemergence, 16 g ai/ha): 100 | Plant response rating, Horseweed (Canada horseweed; Preemergence, 31 g ai/ha): 100 | Barnyardgrass plant response rating (barnyardgrass; 62 g ai/ha, Preemergence): 95 | Barnyardgrass plant response rating (barnyardgrass; 125 g ai/ha, preemergence): 100 | Plant response rating, Barnyardgrass (barnyardgrass; Preemergence, 16 g ai/ha): 20 | Plant response rating, Barnyardgrass (barnyardgrass; Preemergence, 31 g ai/ha): 75
